Source: US8481527B2, “Benzamide derivatives as bradykinin antagonists” (Richter Gedeon Nyrt., priority 2006, dated 2013)
Structures can show the parent of a compound that is named as a salt.

Experiments:
[1] = molecular target: T1, human recombinant bradykinin B1 receptor (Homo sapiens, UniProt P46663); assay: Human recombinant bradykinin B1 receptor binding; conditions: CHO cell membranes, [3H]-[Des-Arg10] Kallidin radioligand; read-out: B1 binding
T1 construct: purchased Euroscreen ES-091; host or cells: CHO cells
T1 sequence (P46663 1-353): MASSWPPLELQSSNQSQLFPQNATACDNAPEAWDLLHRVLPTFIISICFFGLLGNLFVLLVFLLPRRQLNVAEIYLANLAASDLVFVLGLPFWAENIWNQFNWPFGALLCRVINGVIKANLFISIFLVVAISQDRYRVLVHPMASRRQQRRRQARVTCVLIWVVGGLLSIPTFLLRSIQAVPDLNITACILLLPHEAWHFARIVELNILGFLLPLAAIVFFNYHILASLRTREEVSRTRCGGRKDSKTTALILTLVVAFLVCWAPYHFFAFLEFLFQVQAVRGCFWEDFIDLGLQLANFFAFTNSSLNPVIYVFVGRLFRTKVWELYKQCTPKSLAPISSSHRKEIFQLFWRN
Experimental: Receptor Binding Assays 1. Human Recombinant Bradykinin B1 Receptor Binding
Binding assays were carried out on human recombinant bradykinin) receptors (expressed in CHO cells) according to the Euroscreen Technical Data Sheet (Cat.No.:ES-091). 20 μg protein/tube was incubated with [3,4-prolyl-3,4-^3H(N)]-[Des-Arg^10] Kallidin as radioligand. Non specific binding was determined in the presence of 10 μM Lys-des-Arg^9-Bradykinin. The final incubation volume was 250 μl. Samples were incubated for 15 min. at 25° C. then were rapidly vacuum filtered through GF/B filters presoaked for at least 1 h in 0.5% PEI. Radioactivity was determined by liquid scintillation spectroscopy.

[2] = molecular target: T2, recombinant human B1 receptors (Homo sapiens, UniProt P46663); assay: Functional assay: antagonist potency by cytosolic calcium measurement in CHO-B1 cells (agonist LysDABK); type: cell-based; conditions: CHO-B1 cells, LysDABK at EC80, fluo-4 [Ca2+]i; read-out: B1 func.
T2 construct: host or cells: CHO (CHO-B1)
T2 sequence (P46663 1-353): T1 sequence (P46663 1-353)
Experimental: Assessment of Antagonist Potency at B1 and B2 Receptors In Vitro by Measurement of Cytosolic Calcium Ion Concentration with a Plate Reader Fluorimeter in Cells Expressing Recombinant Human B1 or B2 Receptors
Chinese hamster ovary (CHO) cells stably expressing recombinant human B1 (CHO-B1, Euroscreen) or B2 (CHO-B2, Perkin-Elmer) receptors were cultured in Dulbecco's Modified Eagle's Medium (DMEM) containing 10% Fetal Calf Serum (FCS), 100 U/ml penicillin, 0.1 mg/ml streptomycin, 0.25 μg/ml amphotericin B, 1% Minimum Essential Medium Eagle (MEM), non essential amino acid solution, 600 μg/ml G418, 1% pyruvate (for the B2 cell line). Cells were kept at 37° C. in a humidified incubator in an atmosphere of 5% CO2/95% air and were passaged 1:4 three times a week. Cells were plated at 1.5-2.5×10^4 cell/well on standard 96-well microplates, measurements of cytosolic calcium ion concentration ([Ca^2+]i) were carried out 1-2 days after cell plating.
Measurements of [Ca^2+]i were carried out on CHO-B1 and CHO-B2 cells stably expressing human B1 and B2 receptors, respectively. Cells were grown in standard 96-well microplates and before the measurement were loaded with a fluorescent Ca^2+-sensitive dye, fluo-4/AM (2 μM): after removing the culture medium the dye was added to the cells (dissolved in assay buffer: 145 mM NaCl, 5 mM KCl, 2 mM MgCl2, 2 mM CaCl2, 10 mM HEPES, 20 mM D-glucose, 2 mM probenecid, 100 μl/well) and cells were incubated at 37° C. in a humidified incubator in an atmosphere of 5% CO2/95% air for 40-120 min. To stop dye loading cells were washed twice with assay buffer. After washing, various concentrations of the test compounds (diluted in extracellular medium from a DMSO stock solution, final DMSO concentration was <0.1%) or buffer were added to each well depending on the experimental setup. After incubation at 37° C. for 20-25 min. baseline and agonist-evoked changes of [Ca^2+]i were measured column by column with a plate reader fluorimeter (Fluoroskan Ascent, Labsystems). Excitation and detection of emission was carried out from the bottom of the plate. Filters used for Fluo-4: excitation filter—485 nm, emission filter—538 nm. The whole measurement process was performed at 37° C. and was controlled by custom software. Inhibitory potency of the test compounds was assessed by measuring the reduction in the agonist-evoked [Ca^2+]i-elevation in the presence of different concentrations of the compounds. The agonists were LysDABK for CHO-B1, and bradykinin for CHO-B2 cells. Agonists were applied at an EC80 concentration, the EC80-values were derived from daily determined dose-response curves. Fluorescence data were expressed as ΔF/F (fluorescence change normalized to baseline). All treatments on a single plate were measured in multiple wells. Data from all wells with the same treatment were averaged and the average values were used for analysis. Inhibitory potency of a compound at a single concentration point was expressed as percent inhibition of the control agonist response. Sigmoidal concentration-inhibition curves were fitted to the data (derived from at least three independent experiments) and IC50-values were determined as the concentration that produces half of the maximal inhibition caused by the compound.

| SMILES | Ki [1] | IC50 [2] |
| --- | --- | --- |
| CN(C)CCCN1CCN(C(=O)CNC(=O)c2ccc(S(=O)(=O)Nc3ccccc3Oc3ccccc3)cc2)CC1 [Example 2.6, N-{2-[4-(3-Dimethylamino-propyl)-piperazin-1-yl]-2-oxo-ethyl}-4-(2-phenoxy-phenylsulfamoyl)-benzamide] | < 20 nM | < 20 nM |
| O=C(NCC(=O)N1CCC(CCN2CCCC2)CC1)c1ccc(S(=O)(=O)Nc2ccccc2Oc2ccccc2)cc1 [Example 2.7, N-{2-Oxo-2-[4-(2-pyrrolidin-1-yl-ethyl)-piperidin-1-yl]-ethyl}-4-(2-phenoxy-phenylsulfamoyl)-benzamide] | < 20 nM | < 20 nM |
| O=C(NCC(=O)N1CCC(O)CC1)c1ccc(S(=O)(=O)Nc2ccccc2Oc2ccccc2)cc1 [Example 2.10, N-[2-(4-Hydroxy-piperidin-1-yl)-2-oxo-ethyl]-4-(2-phenoxy-phenylsulfamoyl)-benzamide] | 20 to 100 nM | 20 to 100 nM |
| NC(=O)C1CCN(C(=O)CNC(=O)c2ccc(S(=O)(=O)Nc3ccccc3Oc3ccccc3)cc2)CC1 [Example 2.15, 1-{2-[4-(2-Phenoxy-phenylsulfamoyl)-benzoylamino]-acetyl}-piperidine-4-carboxylic acid amide] | 20 to 100 nM | 20 to 100 nM |
| O=C(NCC(=O)N1CCC(CO)CC1)c1ccc(S(=O)(=O)Nc2ccccc2Oc2ccccc2)cc1 [Example 2.22, N-[2-(4-Hydroxymethyl-piperidin-1-yl)-2-oxo-ethyl]-4-(2-phenoxy-phenylsulfamoyl)-benzamide] | < 20 nM | < 20 nM |
| CN1CCC(N2CCN(C(=O)CNC(=O)c3ccc(S(=O)(=O)Nc4ccccc4Oc4ccccc4)cc3)CC2)CC1 [Example 2.34, N-{2-[4-(1-Methyl-piperidin-4-yl)-piperazin-1-yl]-2-oxo-ethyl}-4-(2-phenoxy-phenylsulfamoyl)-benzamide] | < 20 nM | < 20 nM |
| O=C(NCC(=O)N1CCN(CCN2CCCC2)CC1)c1ccc(S(=O)(=O)Nc2ccccc2C(=O)c2ccccc2)cc1 [Example 3.1, 4-(2-Benzoyl-phenylsulfamoyl)-N-{2-oxo-2-[4-(2-pyrrolidin-1-yl-ethyl)-piperazin-1-yl]-ethyl}-benzamide] | < 20 nM | < 20 nM |
| CN(C)CCN1CCN(C(=O)CNC(=O)c2ccc(S(=O)(=O)Nc3ccccc3C(=O)c3ccccc3)cc2)CC1 [Example 3.2, 4-(2-Benzoyl-phenylsulfamoyl)-N-{2-[4-(2-dimethylamino-ethyl)-piperazin-1-yl]-2-oxo-ethyl}-benzamide] | < 20 nM | < 20 nM |
| O=C(NCC(=O)N1CCCCC1)c1ccc(S(=O)(=O)Nc2ccccc2C(=O)c2ccccc2)cc1 [Example 3.3, 4-(2-Benzoyl-phenylsulfamoyl)-N-(2-oxo-2-piperidin-1-yl-ethyl)-benzamide] | < 20 nM | < 20 nM |
| O=C(NCC(=O)N1CCCCCC1)c1ccc(S(=O)(=O)Nc2ccccc2C(=O)c2ccccc2)cc1 [Example 3.4, N-(2-Azepan-1-yl-2-oxo-ethyl)-4-(2-benzoyl-phenylsulfamoyl)-benzamide] | < 20 nM | < 20 nM |
| N#CC1CCN(C(=O)CNC(=O)c2ccc(S(=O)(=O)Nc3ccccc3C(=O)c3ccccc3)cc2)CC1 [Example 3.5, 4-(2-Benzoyl-phenylsulfamoyl)-N-[2-(4-cyano-piperidin-1-yl)-2-oxo-ethyl]-benzamide] | < 20 nM | < 20 nM |
| O=C(NCC(=O)N1CCC(C(F)(F)F)CC1)c1ccc(S(=O)(=O)Nc2ccccc2C(=O)c2ccccc2)cc1 [Example 3.6, 4-(2-Benzoyl-phenylsulfamoyl)-N-[2-oxo-2-(4-trifluoromethyl-piperidin-1-yl)-ethyl]-benzamide] | < 20 nM | < 20 nM |
| CC1CCN(C(=O)CNC(=O)c2ccc(S(=O)(=O)Nc3ccccc3C(=O)c3ccccc3)cc2)CC1 [Example 3.7, 4-(2-Benzoyl-phenylsulfamoyl)-N-[2-(4-methyl-piperidin-1-yl)-2-oxo-ethyl]-benzamide] | < 20 nM | < 20 nM |
| CN1CCCC(CN2CCN(C(=O)CNC(=O)c3ccc(S(=O)(=O)Nc4ccccc4C(=O)c4ccccc4)cc3)CC2)C1 (centres unmarked) [Example 3.8, 4-(2-Benzoyl-phenylsulfamoyl)-N-{2-[4-(1-methyl-piperidin-3-ylmethyl)-piperazin-1-yl]-2-oxo-ethyl}-benzamide] | < 20 nM | < 20 nM |
| O=C(NCC(=O)N1CCC(CO)CC1)c1ccc(S(=O)(=O)Nc2ccccc2C(=O)c2ccccc2)cc1 [Example 3.9, 4-(2-Benzoyl-phenylsulfamoyl)-N-[2-(4-hydroxymethyl-piperidin-1-yl)-2-oxo-ethyl]-benzamide] | < 20 nM | < 20 nM |
| O=C(NCC(=O)N1CCC(CCO)CC1)c1ccc(S(=O)(=O)Nc2ccccc2C(=O)c2ccccc2)cc1 [Example 3.10, 4-(2-Benzoyl-phenylsulfamoyl)-N-{2-[4-(2-hydroxy-ethyl)-piperidin-1-yl]-2-oxo-ethyl}-benzamide] | < 20 nM | < 20 nM |
| O=C(NCC(=O)N1CCN(CCCN2CCCC2)CC1)c1ccc(S(=O)(=O)Nc2ccccc2C(=O)c2ccccc2)cc1 [Example 3.13, 4-(2-Benzoyl-phenylsulfamoyl)-N-{2-oxo-2-[4-(3-pyrrolidin-1-yl-propyl)-piperazin-1-yl]-ethyl}-benzamide] | < 20 nM | < 20 nM |
| CN(C)CCCN1CCN(C(=O)CNC(=O)c2ccc(S(=O)(=O)Nc3ccccc3C(=O)c3ccccc3)cc2)CC1 [Example 3.14, 4-(2-Benzoyl-phenylsulfamoyl)-N-{2-[4-(3-dimethylamino-propyl)-piperazin-1-yl]-2-oxo-ethyl}-benzamide] | < 20 nM | < 20 nM |
| O=C(NCC(=O)N1CCC(CCN2CCCC2)CC1)c1ccc(S(=O)(=O)Nc2ccccc2C(=O)c2ccccc2)cc1 [Example 3.15, 4-(2-Benzoyl-phenylsulfamoyl)-N-{2-oxo-2-[4-(2-pyrrolidin-1-yl-ethyl)-piperidin-1-yl]-ethyl}-benzamide] | < 20 nM | < 20 nM |
| O=C(NCC(=O)N1CCC(O)CC1)c1ccc(S(=O)(=O)Nc2ccccc2C(=O)c2ccccc2)cc1 [Example 3.16, 4-(2-Benzoyl-phenylsulfamoyl)-N-[2-(4-hydroxy-piperidin-1-yl)-2-oxo-ethyl]-benzamide] | < 20 nM | < 20 nM |
| NC(=O)C1CCN(C(=O)CNC(=O)c2ccc(S(=O)(=O)Nc3ccccc3C(=O)c3ccccc3)cc2)CC1 [Example 3.17, 1-{2-[4-(2-Benzoyl-phenylsulfamoyl)-benzoylamino]-acetyl}-piperidine-4-carboxylic acid amide] | < 20 nM | < 20 nM |
| O=C(NCC(=O)N1CCCNCC1)c1ccc(S(=O)(=O)Nc2ccccc2Oc2ccccc2)cc1 [Example 11.1, N-(2-[1,4]-Diazepan-1-yl-2-oxo-ethyl)-4-(2-phenoxy-phenylsulfamoyl)-benzamide hydrochloride] | 20 to 100 nM | < 20 nM |
